Assay [1] concerns T-cell. Nature of the assay: CD25 cell surface staining on T-cells co-stimulated with anti-CD3 and anti-CD28 antibody (Biological Example 2). The class given is cell-based, human. To be noted: Homo sapiens, T-cell, fold change over baseline (anti-CD3/anti-CD28 stimulated T-cells without inhibitor), read-out: CD25 staining Anti-CD3/Anti-CD28 stimulation; for fold induction at 0.3 µM: 0.3 μM Cbl-b inhibitor; for fold induction at 1 µM: 1 μM Cbl-b inhibitor. In a few lines:
(§1)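 T-cells were stimulated with anti-CD3 antibody alone or with anti-CD28 antibody, in the presence or absence of Cbl-b inhibitor. IL-2 secretion or CD25 surface staining was measured, and values expressed as fold over the uninhibited baseline […].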

In assay [2] the test system is T-cell. Nature of the assay: IL-2 secretion from T-cells co-stimulated with anti-CD3 and anti-CD28 antibody (Biological Example 2). The class given is cell-based, human. To be noted: Homo sapiens, T-cell, fold change over baseline (anti-CD3/anti-CD28 stimulated T-cells without inhibitor), read-out: IL-2 secretion Anti-CD3/Anti-CD28 stimulation; for fold induction at 0.3 µM: 0.3 μM Cbl-b inhibitor; for fold induction at 1 µM: 1 μM Cbl-b inhibitor. In a few lines: as §1

Assay [3] deals with T1, Cbl-b (Homo sapiens, UniProt Q13191). Kind of assay: Cbl-b inhibition assay (Cbl-b activity assay, FRET, Biological Example 1; 100 mM NaCl, 60 nM Src kinase). The class given is biochemical. To be noted: upper bound stated in text lists; read-out: IC50 values in the Cbl-b inhibition assay of Biological Example 1. Summed up:
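N-terminally biotinylated Avi-tagged Cbl-b was mixed with Src kinase, UbcH5B covalently conjugated to Bodipy-fluorescein ubiquitin, and streptavidin-terbium. Src phosphorylation lets Cbl-b bind UbcH5B-Ub, giving terbium-fluorescein FRET; inhibition is read as loss of FRET signal.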

The target in assay [4] is T1, Cbl-b. Nature of the assay: Cbl-b activity assay (Cbl-b inhibition assay), TR-FRET of Cbl-b interaction with UbcH5B-Ub. To be noted: assay buffer with 100 mM NaCl, 60 nM Src kinase; read-out: Cbl-b activity IC50. The class given is biochemical. Summed up:
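UbcH5B (C85K) conjugated to N-terminally Bodipy-Fluorescein-labeled ubiquitin served as the fluorescent partner. After compound preincubation, Src kinase (60 nM) with 1 mM ATP and 5 mM MgCl2 (final) was added for 1.5 h, followed by a further 1 h incubation. Some values were obtained with 50 mM NaCl and 30 nM Src.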

The test system of assay [5] is T-cell. Kind of assay: CD25 cell surface staining on T-cells stimulated with anti-CD3 antibody alone (Biological Example 2). The class given is cell-based, human. To be noted: Homo sapiens, T-cell; 1 μM Cbl-b inhibitor; fold change over baseline (anti-CD3/anti-CD28 stimulated T-cells without inhibitor); read-out: CD25 staining Anti-CD3 stimulation.
In assay [6] the test system is T-cell. Kind of assay: IL-2 secretion from T-cells stimulated with anti-CD3 antibody alone (Biological Example 2). It counts as cell-based, human. To be noted: Homo sapiens, T-cell; 1 μM Cbl-b inhibitor; fold change over baseline (anti-CD3/anti-CD28 stimulated T-cells without inhibitor); read-out: IL-2 secretion Anti-CD3 stimulation.

T1 sequence (Q13191 36-427): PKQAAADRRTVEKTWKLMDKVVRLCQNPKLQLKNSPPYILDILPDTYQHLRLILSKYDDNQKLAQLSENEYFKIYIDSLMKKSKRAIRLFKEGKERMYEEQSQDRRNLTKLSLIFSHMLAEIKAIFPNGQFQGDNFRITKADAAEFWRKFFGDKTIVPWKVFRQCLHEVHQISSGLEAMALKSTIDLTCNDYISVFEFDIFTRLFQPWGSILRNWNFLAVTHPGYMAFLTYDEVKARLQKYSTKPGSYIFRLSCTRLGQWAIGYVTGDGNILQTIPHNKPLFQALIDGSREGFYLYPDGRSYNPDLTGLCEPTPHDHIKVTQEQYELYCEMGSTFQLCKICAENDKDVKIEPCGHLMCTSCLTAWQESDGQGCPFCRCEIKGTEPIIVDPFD

For the molecule `C[C@H](c1cc2c(c(C(F)(F)F)c1)CN(c1cccc(C3(Cc4nncn4C)COC3)c1)C2=O)N1CC(F)C1` [Example 668a, (R)-6-(1-(3-fluoroazetidin-1-yl)ethyl)-2-(3-(3-((4-methyl-4H-1,2,4-triazol-3-yl)methyl)oxetan-3-yl)phenyl)-4-(trifluoromethyl)isoindolin-1-one], the fold induction at 0.3 µM lay within 1.31 to 1.5 in the assay with T-cell [1] and 2.51 to 5 in the assay on T-cell [2]. In addition, the fold induction at 1 µM in the assay with T-cell [1] is 1.51 to 1.75; in the assay with T-cell [2], 5 to 7.5; in the assay on T-cell [5] it was greater than 1; in the assay on T-cell [6] it was 0.101 to 0.15. The results for the IC50 at Cbl-b [3] and at Cbl-b [4] were no more than 100 nM and less than 100 nM, respectively.

Take `C[C@@H](c1cc2c(c(C(F)(F)F)c1)CN(c1cccc(C3(Cc4nncn4C)COC3)c1)C2=O)N1CC(F)C1` [Example 668b, (S)-6-(1-(3-fluoroazetidin-1-yl)ethyl)-2-(3-(3-((4-methyl-4H-1,2,4-triazol-3-yl)methyl)oxetan-3-yl)phenyl)-4-(trifluoromethyl)isoindolin-1-one]: the figures for the fold induction at 0.3 µM in the assay with T-cell [1] and in the assay with T-cell [2] were 1.31 to 1.5 and 5 to 7.5, respectively. The fold induction at 1 µM with T-cell [1] was 1.51 to 1.75; with T-cell [2] it was greater than 7.5; in the assay with T-cell [5] it was greater than 1; in the assay with T-cell [6] it was 0.151 to 0.2. The IC50 (in general, the concentration needed to halve the response being measured) is no more than 100 nM at Cbl-b [3] and less than 100 nM at Cbl-b [4].

With `Cc1cc(C(=O)Nc2cccc(C3([C@H](F)c4nncn4C)COC3)c2)nc(C2CC2)n1` [Example 669a, (S)-2-cyclopropyl-N-(3-(3-(fluoro(4-methyl-4H-1,2,4-triazol-3-yl)methyl)oxetan-3-yl)phenyl)-6-methylpyrimidine-4-carboxamide], the results for the fold induction at 0.3 µM with T-cell [1] and with T-cell [2] were 1.01 to 1.3 and 2.51 to 5, respectively. Besides, the fold induction at 1 µM in the assay with T-cell [1] is 1.01 to 1.3; in the assay on T-cell [2], 5 to 7.5; with T-cell [5], greater than 1; with T-cell [6] it was 0.151 to 0.2. Besides, the IC50 is no more than 100 nM on Cbl-b [3] and less than 100 nM on Cbl-b [4].

Take `Cc1cc(C(=O)Nc2cccc(C3([C@@H](F)c4nncn4C)COC3)c2)nc(C2CC2)n1` [Example 669b, (R)-2-cyclopropyl-N-(3-(3-(fluoro(4-methyl-4H-1,2,4-triazol-3-yl)methyl)oxetan-3-yl)phenyl)-6-methylpyrimidine-4-carboxamide]: the values for the fold induction at 0.3 µM with T-cell [1] and with T-cell [2] were 1.01 to 1.3 and 2.51 to 5, respectively. The fold induction at 1 µM in the assay on T-cell [1] is 1.31 to 1.5; in the assay with T-cell [2], greater than 7.5; in the assay on T-cell [5], greater than 1; with T-cell [6], greater than 0.201. Moreover, the IC50 is no more than 100 nM at Cbl-b [3] and less than 100 nM at Cbl-b [4].

Turning to `Cn1cnnc1[C@@H](F)C1(c2cccc(N3Cc4c(cc(CN5C6CCC5CC6)cc4C(F)(F)F)C3=O)c2)COC1` [Example 671a, (S)-6-((7-azabicyclo[2.2.1]heptan-7-yl)methyl)-2-(3-(3-(fluoro(4-methyl-4H-1,2,4-triazol-3-yl)methyl)oxetan-3-yl)phenyl)-4-(trifluoromethyl)isoindolin-1-one], the figures for the fold induction at 0.3 µM in the assay with T-cell [1] and in the assay on T-cell [2] were 1.51 to 1.75 and 2.51 to 5, respectively. Further, the fold induction at 1 µM in the assay on T-cell [1] is greater than 1.76; in the assay with T-cell [2], 5 to 7.5; with T-cell [5], 0.601 to 0.8; with T-cell [6] it was greater than 0.201. The figures for the IC50 at Cbl-b [3] and at Cbl-b [4] were no more than 100 nM and less than 100 nM, respectively.

In the case of `Cn1cnnc1[C@H](F)C1(c2cccc(N3Cc4c(cc(CN5C6CCC5CC6)cc4C(F)(F)F)C3=O)c2)COC1` [Example 671b, (R)-6-((7-azabicyclo[2.2.1]heptan-7-yl)methyl)-2-(3-(3-(fluoro(4-methyl-4H-1,2,4-triazol-3-yl)methyl)oxetan-3-yl)phenyl)-4-(trifluoromethyl)isoindolin-1-one], the fold induction at 0.3 µM with T-cell [1] is greater than 1.76; in the assay with T-cell [2], greater than 7.5. The fold induction at 1 µM with T-cell [1] is greater than 1.76; in the assay with T-cell [2] it was greater than 7.5; in the assay with T-cell [5] it was greater than 1; in the assay with T-cell [6] it was greater than 0.201. The IC50 is no more than 100 nM on Cbl-b [3] and less than 100 nM at Cbl-b [4].

Regarding `Cn1cnnc1[C@@H](F)C1(c2cccc(N3Cc4c(cc(CN5[C@@H]6CC[C@H]5C[C@@H](F)C6)cc4C(F)(F)F)C3=O)c2)COC1` [Example 672a, 2-(3-(3-((S)-fluoro(4-methyl-4H-1,2,4-triazol-3-yl)methyl)oxetan-3-yl)-phenyl)-6-(((1R,3S,5S)-3-fluoro-8-azabicyclo[3.2.1]octan-8-yl)methyl)-4-(trifluoromethyl)isoindolin-1-one], the fold induction at 0.3 µM with T-cell [1] is greater than 1.76; in the assay on T-cell [2], 2.51 to 5. Besides, the fold induction at 1 µM with T-cell [1] was greater than 1.76; in the assay on T-cell [2], greater than 7.5; with T-cell [5], 0.801 to 1; in the assay with T-cell [6] it was greater than 0.201. The half-inhibitory concentration (IC50) at Cbl-b [3] was no more than 100 nM; at Cbl-b [4], less than 100 nM.

Turning to `Cn1cnnc1[C@H](F)C1(c2cccc(N3Cc4c(cc(CN5[C@@H]6CC[C@H]5C[C@@H](F)C6)cc4C(F)(F)F)C3=O)c2)COC1` [Example 672b, 2-(3-(3-((R)-fluoro(4-methyl-4H-1,2,4-triazol-3-yl)methyl)oxetan-3-yl)phenyl)-6-(((1R,3R,5S)-3-fluoro-8-azabicyclo[3.2.1]octan-8-yl)methyl)-4-(trifluoromethyl)isoindolin-1-one], the fold induction at 0.3 µM is greater than 1.76 in the assay with T-cell [1] and greater than 7.5 in the assay on T-cell [2]. Moreover, the fold induction at 1 µM in the assay on T-cell [1] was greater than 1.76; in the assay on T-cell [2], greater than 7.5; with T-cell [5], greater than 1; with T-cell [6], greater than 0.201. Further, the IC50 on Cbl-b [3] was no more than 100 nM; at Cbl-b [4], less than 100 nM.

For the molecule `Cn1cnnc1[C@@H](F)C1(c2cccc(N3Cc4c(cc(CN5CCCC5)cc4C(F)(F)F)C3=O)c2)COC1` [Example 673a, (S)-2-(3-(3-(fluoro(4-methyl-4H-1,2,4-triazol-3-yl)methyl)oxetan-3-yl)phenyl)-6-(pyrrolidin-1-ylmethyl)-4-(trifluoromethyl)isoindolin-1-one], the fold induction at 0.3 µM with T-cell [1] is greater than 1.76; in the assay with T-cell [2], 5 to 7.5. The fold induction at 1 µM was greater than 1.76 in the assay on T-cell [1], greater than 7.5 in the assay on T-cell [2], 0.801 to 1 with T-cell [5] and greater than 0.201 with T-cell [6]. In addition, the IC50 at Cbl-b [3] is no more than 100 nM; at Cbl-b [4] it was less than 100 nM.

For `Cn1cnnc1[C@H](F)C1(c2cccc(N3Cc4c(cc(CN5CCCC5)cc4C(F)(F)F)C3=O)c2)COC1` [Example 673b, (R)-2-(3-(3-(fluoro(4-methyl-4H-1,2,4-triazol-3-yl)methyl)oxetan-3-yl)phenyl)-6-(pyrrolidin-1-ylmethyl)-4-(trifluoromethyl)isoindolin-1-one], the fold induction at 0.3 µM with T-cell [1] is 1.31 to 1.5; with T-cell [2] it was greater than 7.5. Further, the fold induction at 1 µM with T-cell [1] was 1.31 to 1.5; in the assay on T-cell [2], greater than 7.5; in the assay with T-cell [5], greater than 1; in the assay on T-cell [6], greater than 0.201. The IC50 on Cbl-b [3] is no more than 100 nM; at Cbl-b [4] it was less than 100 nM.

Values taken from patent US20220324835A1 (Nurix Therapeutics, Inc., priority 2018, published 2022).
